What was measured:
ISC-enriched organoids [1] = assay: Primary screen, 384-well 2.5-D organoid differentiation (ENR+CD, 6 days, Target Selective Inhibitor Library, vs whole-plate median): ATP (CellTiter-Glo 3D, CTG); conditions: for Dose.FC.CTG: FC vs plate median
ISC-enriched organoids [2] = assay: Primary screen, 384-well 2.5-D organoid differentiation (ENR+CD, 6 days): carbachol-induced lysozyme secretion (LYZ.S); type: cell-based, murine; conditions: FC vs plate median
Text: (§1) High-throughput screening.

ISC-enriched organoids [3] = assay: Primary screen, 384-well 2.5-D organoid differentiation (ENR+CD, 6 days): basal lysozyme secretion (LYZ.NS); type: cell-based, murine; conditions: for Dose.FC.LYZ.NS: FC vs plate median
Text: as §1

[4] = Dose 0.08 uM, standard z score of FC
[5] = Dose 0.40 uM, standard z score of FC
[6] = Dose 2.00 uM, standard z score of FC
[7] = Dose 10.00 uM, standard z score of FC
[8] = Dose 0.08 uM, primary screen, standard z score
[9] = Dose 0.40 uM, primary screen, standard z score
[10] = Dose 2.00 uM, primary screen, standard z score
[11] = Dose 10.00 uM, primary screen, standard z score

Compound | Dose.FC.CTG (ISC-enriched organoids [1]; Dose 0.08 uM, ENR+CD, 6 days) [log 2 fold change] | Z.CTG (ISC-enriched organoids [1]; [4]) | Dose.FC.CTG (ISC-enriched organoids [1]; Dose 0.40 uM, ENR+CD, 6 days) [log 2 fold change] | Z.CTG (ISC-enriched organoids [1]; [5]) | Dose.FC.CTG (ISC-enriched organoids [1]; Dose 2.00 uM, ENR+CD, 6 days) [log 2 fold change] | Z.CTG (ISC-enriched organoids [1]; [6]) | Dose.FC.CTG (ISC-enriched organoids [1]; Dose 10.00 uM, ENR+CD, 6 days) [log 2 fold change] | Z.CTG (ISC-enriched organoids [1]; [7]) | Dose.FC.LYZ.S (ISC-enriched organoids [2]; Dose 0.08 uM, ENR+CD, 6 days) [log 2 fold change] | Dose.FC.LYZ.S (ISC-enriched organoids [2]; Dose 0.40 uM, ENR+CD, 6 days) [log 2 fold change] | Dose.FC.LYZ.S (ISC-enriched organoids [2]; Dose 2.00 uM, ENR+CD, 6 days) [log 2 fold change] | Dose.FC.LYZ.S (ISC-enriched organoids [2]; Dose 10.00 uM, ENR+CD, 6 days) [log 2 fold change] | Dose.FC.LYZ.NS (ISC-enriched organoids [3]; Dose 0.08 uM, ENR+CD, 6 days) [log 2 fold change] | Z.LYZ.NS (ISC-enriched organoids [3]; [4]) | Dose.FC.LYZ.NS (ISC-enriched organoids [3]; Dose 0.40 uM, ENR+CD, 6 days) [log 2 fold change] | Z.LYZ.NS (ISC-enriched organoids [3]; [5]) | Dose.FC.LYZ.NS (ISC-enriched organoids [3]; Dose 2.00 uM, ENR+CD, 6 days) [log 2 fold change] | Z.LYZ.NS (ISC-enriched organoids [3]; [6]) | Dose.FC.LYZ.NS (ISC-enriched organoids [3]; Dose 10.00 uM, ENR+CD, 6 days) [log 2 fold change] | Z.LYZ.NS (ISC-enriched organoids [3]; [7]) | also measured
COc1cc2c(cc1Cc1cccc(Cl)c1F)c(=O)c(C(=O)O)cn2[C@H](CO)C(C)C [Elvitegravir (GS-9137, JTK-303)] | −0.001 | −0.001 | −0.040 | −0.095 | −0.344 | −0.823 | −0.737 | −1.760 | −0.010 | 0.092 | −0.126 | −0.135 | −0.047 | −0.412 | −0.069 | −0.598 | −0.094 | −0.821 | −0.090 | −0.782 | 
CCc1cc(Nc2nccc(-c3c(-c4ccc(OC)c(C(=O)Nc5c(F)cccc5F)c4)nc4ccccn34)n2)c(OC)cc1N1CCC(N2CCN(S(C)(=O)=O)CC2)CC1 [GSK1904529A] |  |  |  |  |  |  |  |  |  |  |  |  |  |  |  |  |  |  |  |  | Dose.FC.CTG (ISC-enriched organoids [1]; Dose 0.08 uM, primary screen): 0.202 log 2 fold change; Z.CTG (ISC-enriched organoids [1]; [8]): 0.484; Dose.FC.CTG (ISC-enriched organoids [1]; Dose 0.40 uM, primary screen): −0.071 log 2 fold change; Z.CTG (ISC-enriched organoids [1]; [9]): −0.170; Dose.FC.CTG (ISC-enriched organoids [1]; Dose 2.00 uM, primary screen): −0.570 log 2 fold change; Z.CTG (ISC-enriched organoids [1]; [10]): −1.361; Dose.FC.CTG (ISC-enriched organoids [1]; Dose 10.00 uM, primary screen): −0.691 log 2 fold change; Z.CTG (ISC-enriched organoids [1]; [11]): −1.649; Dose.FC.LYZ.S (ISC-enriched organoids [2]; Dose 0.08 uM, primary screen): 0.133 log 2 fold change; Dose.FC.LYZ.S (ISC-enriched organoids [2]; Dose 0.40 uM, primary screen): −0.047 log 2 fold change; Dose.FC.LYZ.S (ISC-enriched organoids [2]; Dose 2.00 uM, primary screen): −0.225 log 2 fold change; Dose.FC.LYZ.S (ISC-enriched organoids [2]; Dose 10.00 uM, primary screen): −0.276 log 2 fold change; Dose.FC.LYZ.NS (ISC-enriched organoids [3]; Dose 0.08 uM, primary screen): 0.102 log 2 fold change; Z.LYZ.NS (ISC-enriched organoids [3]; [8]): 0.890; Dose.FC.LYZ.NS (ISC-enriched organoids [3]; Dose 0.40 uM, primary screen): 0.112 log 2 fold change; Z.LYZ.NS (ISC-enriched organoids [3]; [9]): 0.977; Dose.FC.LYZ.NS (ISC-enriched organoids [3]; Dose 2.00 uM, primary screen): −0.179 log 2 fold change; Z.LYZ.NS (ISC-enriched organoids [3]; [10]): −1.557; Dose.FC.LYZ.NS (ISC-enriched organoids [3]; Dose 10.00 uM, primary screen): −0.163 log 2 fold change; Z.LYZ.NS (ISC-enriched organoids [3]; [11]): −1.419
C1=N/C2=N/c3ccc(OCCN4CCCC4)c(c3)COC/C=C/COCc3cccc(c3)C(=C1)N2 [Pacritinib (SB1518)] |  | −0.014 |  | 0.236 |  | −0.560 |  | −3.047 |  |  |  |  |  | 0.795 |  | −0.299 |  | −1.908 |  | −2.391 | Dose.FC.CTG (ISC-enriched organoids [1]; Dose 0.08 uM, primary screen): −0.006 log 2 fold change; Dose.FC.CTG (ISC-enriched organoids [1]; Dose 0.40 uM, primary screen): 0.099 log 2 fold change; Dose.FC.CTG (ISC-enriched organoids [1]; Dose 2.00 uM, primary screen): −0.235 log 2 fold change; Dose.FC.CTG (ISC-enriched organoids [1]; Dose 10.00 uM, primary screen): −1.276 log 2 fold change; Dose.FC.LYZ.S (ISC-enriched organoids [2]; Dose 0.08 uM, primary screen): 0.066 log 2 fold change; Dose.FC.LYZ.S (ISC-enriched organoids [2]; Dose 0.40 uM, primary screen): −0.032 log 2 fold change; Dose.FC.LYZ.S (ISC-enriched organoids [2]; Dose 2.00 uM, primary screen): −0.304 log 2 fold change; Dose.FC.LYZ.S (ISC-enriched organoids [2]; Dose 10.00 uM, primary screen): −0.419 log 2 fold change; Dose.FC.LYZ.NS (ISC-enriched organoids [3]; Dose 0.08 uM, primary screen): 0.091 log 2 fold change; Dose.FC.LYZ.NS (ISC-enriched organoids [3]; Dose 0.40 uM, primary screen): −0.034 log 2 fold change; Dose.FC.LYZ.NS (ISC-enriched organoids [3]; Dose 2.00 uM, primary screen): −0.219 log 2 fold change; Dose.FC.LYZ.NS (ISC-enriched organoids [3]; Dose 10.00 uM, primary screen): −0.275 log 2 fold change
Cc1ccc([C@@H]2O[C@H](CO)[C@@H](O)[C@H](O)[C@H]2O)cc1Cc1ccc(-c2ccc(F)cc2)s1 [Canagliflozin] | −0.240 | −0.572 | −0.098 | −0.235 | 0.042 | 0.101 | −0.079 | −0.188 | 0.014 | −0.032 | 0.028 | −0.033 | −0.027 | −0.233 | −0.046 | −0.398 | 0.025 | 0.214 | −0.064 | −0.556 | 

From patent US20230398130A1, “METHODS AND COMPOSITIONS FOR DIFFERENTIATING STEM CELLS” (Massachusetts Institute of Technology, priority 2020, published 2023)
